Experimental data as given in ChEMBL document CHEMBL1149135, “Aza-peptide Michael acceptors: a new class of inhibitors specific for caspases and other clan CD cysteine proteases” (J Med Chem, 2004).

Columns and labels:
[1] = biological target: T1, Caspase-6 (Homo sapiens) (UniProt P55212); assay: Compound was evaluated for potent inhibition of caspase-6
T1 sequence (whole entry): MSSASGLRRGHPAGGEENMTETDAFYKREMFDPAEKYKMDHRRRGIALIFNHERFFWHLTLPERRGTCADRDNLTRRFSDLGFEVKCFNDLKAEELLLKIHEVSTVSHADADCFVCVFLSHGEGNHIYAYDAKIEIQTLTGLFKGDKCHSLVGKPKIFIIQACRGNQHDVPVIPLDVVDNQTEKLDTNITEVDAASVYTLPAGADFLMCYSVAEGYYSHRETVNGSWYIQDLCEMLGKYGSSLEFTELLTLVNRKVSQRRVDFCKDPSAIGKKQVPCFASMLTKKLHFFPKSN

[2] = biological target: T2, Caspase-3 (Homo sapiens) (UniProt P42574); assay: Compound was evaluated for potent inhibition of caspase-3
T2 sequence (whole entry): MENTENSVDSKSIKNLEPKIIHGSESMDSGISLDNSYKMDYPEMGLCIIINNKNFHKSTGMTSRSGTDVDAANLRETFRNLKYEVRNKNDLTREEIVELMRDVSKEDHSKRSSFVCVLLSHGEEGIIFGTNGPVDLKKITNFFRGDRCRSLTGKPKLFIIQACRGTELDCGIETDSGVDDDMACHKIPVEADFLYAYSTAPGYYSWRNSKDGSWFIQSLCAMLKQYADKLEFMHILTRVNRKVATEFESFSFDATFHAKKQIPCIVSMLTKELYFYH

[3] = biological target: Caspase-8 (Homo sapiens) (UniProt Q14790); assay: Compound was evaluated for potent inhibition of caspase-8
Chain of Caspase-8 (Homo sapiens) (Q14790 217-374 limits assumed): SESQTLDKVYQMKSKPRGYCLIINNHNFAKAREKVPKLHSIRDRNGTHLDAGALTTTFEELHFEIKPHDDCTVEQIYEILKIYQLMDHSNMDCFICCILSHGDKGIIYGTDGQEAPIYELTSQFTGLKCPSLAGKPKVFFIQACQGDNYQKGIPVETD
Chain of Caspase-8 (Homo sapiens) (Q14790 385-479 limits assumed): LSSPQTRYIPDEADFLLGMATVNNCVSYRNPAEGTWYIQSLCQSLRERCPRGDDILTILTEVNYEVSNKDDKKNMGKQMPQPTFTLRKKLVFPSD

[4] = tested on: Clostripain (Clostridium histolyticum); assay: Compound was evaluated for irreversible inhibition of clostripain
[5] = tested on: Lys-gingipain (Porphyromonas gingivalis); assay: Compound was evaluated for irreversible inhibition of Lys-gingipain

k2 [1] | k2 [2] | k2 [3] | k2 [4] | Structure (SMILES) | k2 [5]
8470 M⁻¹ s⁻¹ | 1.7e+06 M⁻¹ s⁻¹ | 121000 M⁻¹ s⁻¹ |  | CC(C)[C@H](NC(=O)[C@H](CCC(=O)O)NC(=O)[C@H](CC(=O)O)NC(=O)OCc1ccccc1)C(=O)NN(CC(=O)O)C(=O)/C=C/C(=O)OCc1ccccc1 | 
3210 M⁻¹ s⁻¹ | 1.75e+06 M⁻¹ s⁻¹ | 78200 M⁻¹ s⁻¹ |  | CC(C)[C@H](NC(=O)[C@H](CCC(=O)O)NC(=O)[C@H](CC(=O)O)NC(=O)OCc1ccccc1)C(=O)NN(CC(=O)O)C(=O)/C=C/C(=O)NCc1ccccc1 | 
9500 M⁻¹ s⁻¹ | 2.64e+06 M⁻¹ s⁻¹ | 90300 M⁻¹ s⁻¹ |  | CC(C)[C@H](NC(=O)[C@H](CCC(=O)O)NC(=O)[C@H](CC(=O)O)NC(=O)OCc1ccccc1)C(=O)NN(CC(=O)O)C(=O)/C=C/C(=O)N(C)Cc1ccccc1 | 

Continued, molecule first:

Structure (SMILES) | k2 [1] | k2 [2] | k2 [3] | k2 [4] | k2 [5]
CC(C)C[C@H](NC(=O)OCc1ccccc1)C(=O)N[C@@H](CCC(=O)O)C(=O)N[C@H](C(=O)NN(CC(=O)O)C(=O)/C=C/C(=O)N(C)Cc1ccccc1)[C@@H](C)O | 10800 M⁻¹ s⁻¹ | 6000 M⁻¹ s⁻¹ | 169000 M⁻¹ s⁻¹ |  | 
CCOC(=O)/C=C/C(=O)N(CC(=O)O)NC(=O)[C@@H](NC(=O)[C@H](CCC(=O)O)NC(=O)[C@H](CC(=O)O)NC(=O)OCc1ccccc1)C(C)C | 35600 M⁻¹ s⁻¹ | 2.13e+06 M⁻¹ s⁻¹ | 273000 M⁻¹ s⁻¹ |  | 
CCOC(=O)/C=C/C(=O)N(CCCCN)NC(=O)[C@H](CC(C)C)NC(=O)OCCc1ccccc1 |  |  |  | 40800 M⁻¹ s⁻¹ | 3.28e+06 M⁻¹ s⁻¹
CC(C)C[C@H](NC(=O)OCc1ccccc1)C(=O)N[C@@H](CCC(=O)O)C(=O)N[C@H](C(=O)NN(CC(=O)O)C(=O)/C=C/C(=O)OCc1ccccc1)[C@@H](C)O | 47600 M⁻¹ s⁻¹ | 4600 M⁻¹ s⁻¹ | 98400 M⁻¹ s⁻¹ |  | 
CCOC(=O)/C=C/C(=O)N(CCCN)NC(=O)[C@H](CC(C)C)NC(=O)OCCc1ccccc1 |  |  |  | 788 M⁻¹ s⁻¹ | 927000 M⁻¹ s⁻¹
CCOC(=O)/C=C/C(=O)N(CC(=O)O)NC(=O)[C@@H](NC(=O)[C@H](CCC(=O)O)NC(=O)[C@H](CC(C)C)NC(=O)OCc1ccccc1)[C@@H](C)O | 18700 M⁻¹ s⁻¹ | 5560 M⁻¹ s⁻¹ | 237000 M⁻¹ s⁻¹ |  | 
